One compound from publication PMC5218480 (PLoS ONE, 2017) can be followed below.

This assay relates to MV-4-11 cells. Kind of assay: Gene expression microarray analysis (Affymetrix PrimeView) and GSEA. The format is cell-based, human. Further details: RFU PODN (11730768_x_at) / Fold change /veh PODN (11730768_x_at) / RFU LINC00158 (11744669_a_at) / Fold change /veh LINC00158 (11744669_a_at) / RFU DUSP10 (11751237_a_at) / Fold change /veh DUSP10 (11751237_a_at) / RFU ID3 (11757404_x_at) / Fold change /veh ID3 (11757404_x_at) / RFU PLEKHG5 (11737974_s_at) / Fold change /veh PLEKHG5 (11737974_s_at) / RFU LRRC4B (11730491_at) / Fold change /veh LRRC4B (11730491_at) / RFU GIMAP4 (11747438_a_at) / Fold change /veh GIMAP4 (11747438_a_at) / RFU KRT8 (11758183_x_at) / Fold change /veh KRT8 (11758183_x_at) / RFU CNN1 (11734310_a_at) / Fold change /veh CNN1 (11734310_a_at) / RFU VPS37D (11726825_at) / Fold change /veh VPS37D (11726825_at) / RFU C10orf10 (11716522_x_at) / Fold change /veh C10orf10 (11716522_x_at) / RFU KIR2DL2 /// KIR2DL4 /// KIR2DL5A /// KIR2DL5B /// KIR2DS1 /// KIR2DS2 /// KIR2DS3 /// KIR2DS4 /// KIR3DL3 /// KIR3DL3 /// KIR3DS1 (11738374_at) / Fold change /veh KIR2DL2 /// KIR2DL4 /// KIR2DL5A /// KIR2DL5B /// KIR2DS1 /// KIR2DS2 /// KIR2DS3 /// KIR2DS4 /// KIR3DL3 /// KIR3DL3 /// KIR3DS1 (11738374_at) / RFU C1QL1 (11718748_at) / Fold change /veh C1QL1 (11718748_at) / RFU TMPRSS4 (11747572_a_at) / Fold change /veh TMPRSS4 (11747572_a_at) / RFU HAMP (11756126_x_at) / Fold change /veh HAMP (11756126_x_at) / RFU RNFT2 (11725882_a_at) / Fold change /veh RNFT2 (11725882_a_at) / RFU NR4A2 (11747474_a_at) / Fold change /veh NR4A2 (11747474_a_at) / RFU ABCC12 (11746883_a_at) / Fold change /veh ABCC12 (11746883_a_at) / RFU TMEM136 (11760407_x_at) / Fold change /veh TMEM136 (11760407_x_at) / RFU CLDN22 /// WWC2 (11732394_at) / Fold change /veh CLDN22 /// WWC2 (11732394_at) / RFU HLA-DPB1 (11760878_x_at) / Fold change /veh HLA-DPB1 (11760878_x_at) / RFU SPINT1 (11716480_a_at) / Fold change /veh SPINT1 (11716480_a_at) / RFU GAP43 (11754022_s_at) / Fold change /veh GAP43 (11754022_s_at) / RFU A4GNT (11735810_at) / Fold change /veh A4GNT (11735810_at) / RFU PRB3 (11715151_x_at) / Fold change /veh PRB3 (11715151_x_at) / RFU TUBB4B (11761932_at) / Fold change /veh TUBB4B (11761932_at) / RFU CAPN14 (11732068_a_at) / Fold change /veh CAPN14 (11732068_a_at) / RFU TMCC2 (11721928_a_at) / Fold change /veh TMCC2 (11721928_a_at) / RFU IRGQ (11745062_a_at) / Fold change /veh IRGQ (11745062_a_at) / RFU FAM174B (11720279_a_at) / Fold change /veh FAM174B (11720279_a_at) / RFU TMPRSS4 (11748680_a_at) / Fold change /veh TMPRSS4 (11748680_a_at) / RFU FAM212B (11763350_a_at) / Fold change /veh FAM212B (11763350_a_at) / RFU PLEKHG5 (11743358_a_at) / Fold change /veh PLEKHG5 (11743358_a_at) / RFU ZSCAN30 (11745921_a_at) / Fold change /veh ZSCAN30 (11745921_a_at) / RFU CMKLR1 (11741424_a_at) / Fold change /veh CMKLR1 (11741424_a_at) / RFU LOC101060620 /// MAPK8IP1 (11723275_at) / Fold change /veh LOC101060620 /// MAPK8IP1 (11723275_at) / RFU SPTSSB (11747773_x_at) / Fold change /veh SPTSSB (11747773_x_at) / RFU PRSS12 (11739890_at) / Fold change /veh PRSS12 (11739890_at) / RFU BIN1 (11741810_x_at) / Fold change /veh BIN1 (11741810_x_at) / RFU WNT11 (11732464_a_at) / Fold change /veh WNT11 (11732464_a_at) / RFU C10orf10 (11716521_a_at) / Fold change /veh C10orf10 (11716521_a_at) / RFU C5orf56 (11738089_at) / Fold change /veh C5orf56 (11738089_at) / RFU CYB561 (11721691_x_at) / Fold change /veh CYB561 (11721691_x_at) / RFU ANKRD19P (11752326_a_at) / Fold change /veh ANKRD19P (11752326_a_at) / RFU OR2T12 /// OR2T33 /// OR2T8 (11738714_s_at) / Fold change /veh OR2T12 /// OR2T33 /// OR2T8 (11738714_s_at) / RFU VCAN (11748164_a_at) / Fold change /veh VCAN (11748164_a_at) / RFU JSRP1 (11732532_at) / Fold change /veh JSRP1 (11732532_at) / RFU KRTAP10-11 (11738290_x_at) / Fold change /veh KRTAP10-11 (11738290_x_at) / RFU MYO3A (11730013_a_at) / Fold change /veh MYO3A (11730013_a_at) / RFU EBF3 (11725865_a_at) / Fold change /veh EBF3 (11725865_a_at) / RFU CAMK2N1 (11719241_x_at) / Fold change /veh CAMK2N1 (11719241_x_at) / RFU C5orf56 (11738088_a_at) / Fold change /veh C5orf56 (11738088_a_at) / RFU OLFML3 (11715873_a_at) / Fold change /veh OLFML3 (11715873_a_at) / RFU LOC100653217 /// NTM (11731650_a_at) / Fold change /veh LOC100653217 /// NTM (11731650_a_at) / RFU MAPK11 (11762145_a_at) / Fold change /veh MAPK11 (11762145_a_at) / RFU FIZ1 (11724087_x_at) / Fold change /veh FIZ1 (11724087_x_at) / RFU OASL (11726364_x_at) / Fold change /veh OASL (11726364_x_at) / RFU SOX15 (11748057_x_at) / Fold change /veh SOX15 (11748057_x_at) / RFU CD79A (11719716_a_at) / Fold change /veh CD79A (11719716_a_at) / RFU HIST1H1D (11736915_at) / Fold change /veh HIST1H1D (11736915_at) / RFU CASKIN2 (11723855_a_at) / Fold change /veh CASKIN2 (11723855_a_at) / RFU LOC730098 (11760151_x_at) / Fold change /veh LOC730098 (11760151_x_at) / RFU OR4N2 (11742367_at) / Fold change /veh OR4N2 (11742367_at) / RFU PRRT2 (11749266_a_at) / Fold change /veh PRRT2 (11749266_a_at) / RFU SNX32 (11753110_a_at) / Fold change /veh SNX32 (11753110_a_at) / RFU CDHR5 (11726645_a_at) / Fold change /veh CDHR5 (11726645_a_at) / RFU RCAN1 (11760418_a_at) / Fold change /veh RCAN1 (11760418_a_at) / RFU FAM167A (11723789_a_at) / Fold change /veh FAM167A (11723789_a_at) / RFU FAM26E (11764081_at) / Fold change /veh FAM26E (11764081_at) / RFU ISYNA1 (11749810_s_at) / Fold change /veh ISYNA1 (11749810_s_at) / RFU ACY1 (11761880_at) / Fold change /veh ACY1 (11761880_at) / RFU 11764098_at / Fold change /veh 11764098_at / RFU SAMD14 (11745864_x_at) / Fold change /veh SAMD14 (11745864_x_at) / RFU NPB (11741838_a_at) / Fold change /veh NPB (11741838_a_at) / RFU TMPRSS6 (11731388_a_at) / Fold change /veh TMPRSS6 (11731388_a_at) / RFU KRTAP10-2 (11738614_at) / Fold change /veh KRTAP10-2 (11738614_at) / RFU ARHGAP8 /// PRR5-ARHGAP8 (11727945_x_at) / Fold change /veh ARHGAP8 /// PRR5-ARHGAP8 (11727945_x_at) / RFU KRTAP5-7 /// NADSYN1 (11734609_at) / Fold change /veh KRTAP5-7 /// NADSYN1 (11734609_at) / RFU RASL12 (11751679_a_at) / Fold change /veh RASL12 (11751679_a_at) / RFU CDKN2B (11736163_a_at) / Fold change /veh CDKN2B (11736163_a_at) / RFU PRF1 (11729649_at) / Fold change /veh PRF1 (11729649_at) / RFU, ZNF638 /// ZNF638-IT1 / Fold change vs veh, ZNF638 /// ZNF638-IT1 / RFU, PANK3 / Fold change vs veh, PANK3 / RFU, SH3YL1 / Fold change vs veh, SH3YL1 / RFU, ZEB2 / Fold change vs veh, ZEB2 / RFU, NRIP1 / Fold change vs veh, NRIP1 / RFU, PTTG1IP / Fold change vs veh, PTTG1IP / RFU, CAPN2 / Fold change vs veh, CAPN2 / RFU, MED14 / Fold change vs veh, MED14 / RFU, SNORA58 / Fold change vs veh, SNORA58 / RFU, C1orf63 / Fold change vs veh, C1orf63 / RFU, LRRFIP1 / Fold change vs veh, LRRFIP1 / RFU, NDUFAF7 / Fold change vs veh, NDUFAF7 / RFU, SLC12A2 / Fold change vs veh, SLC12A2 / RFU, IBTK / Fold change vs veh, IBTK / RFU, ESF1 / Fold change vs veh, ESF1 / Fold change vs veh, TMEM50B / RFU, TAOK1 / Fold change vs veh, TAOK1 / RFU, ACBD3 / Fold change vs veh, ACBD3 / RFU, TMA16 / Fold change vs veh, TMA16 / RFU, RWDD3 / Fold change vs veh, RWDD3 / RFU, BCAT1 / Fold change vs veh, BCAT1 / RFU, EDEM3 / Fold change vs veh, EDEM3 / RFU, TMEM33 / Fold change vs veh, TMEM33 / RFU, WDR75 / Fold change vs veh, WDR75 / RFU, AHCTF1 / Fold change vs veh, AHCTF1 / RFU, TFRC / Fold change vs veh, TFRC / RFU, ZDHHC17 / Fold change vs veh, ZDHHC17 / RFU, NOM1 / Fold change vs veh, NOM1 / RFU, ARL8B / Fold change vs veh, ARL8B / RFU, ZBTB11 / Fold change vs veh, ZBTB11 / RFU, TAMM41 / Fold change vs veh, TAMM41 / RFU, KIAA1704 /// LOC100996395 / Fold change vs veh, KIAA1704 /// LOC100996395 / RFU, ING1 / Fold change vs veh, ING1 / RFU, TRMT61B / Fold change vs veh, TRMT61B / RFU, FUBP3 / Fold change vs veh, FUBP3 / RFU, TP53 / Fold change vs veh, TP53 / RFU, TNKS2 / Fold change vs veh, TNKS2 / RFU, ZFP14 / Fold change vs veh, ZFP14 / RFU, ACTR2 / Fold change vs veh, ACTR2 / RFU, PPP3R1 / Fold change vs veh, PPP3R1 / RFU, PIK3R1 / Fold change vs veh, PIK3R1 / RFU, HNRNPA1 / Fold change vs veh, HNRNPA1 / RFU, RNF170 / Fold change vs veh, RNF170 / RFU, ZNF28 / Fold change vs veh, ZNF28 / RFU, RNGTT / Fold change vs veh, RNGTT / RFU, OGT / Fold change vs veh, OGT / RFU, BRD1 / Fold change vs veh, BRD1 / RFU, MARS / Fold change vs veh, MARS / RFU, ZNF655 / Fold change vs veh, ZNF655 / RFU, FAHD1 / Fold change vs veh, FAHD1 / RFU, BDP1 / Fold change vs veh, BDP1 / RFU, LRRCC1 / Fold change vs veh, LRRCC1 / RFU, ARID1A / Fold change vs veh, ARID1A / RFU, ZNF146 / Fold change vs veh, ZNF146 / RFU, ZNF330 / Fold change vs veh, ZNF330 / RFU, GPN3 / Fold change vs veh, GPN3 / RFU, C9orf123 / Fold change vs veh, C9orf123 / RFU, N4BP2L2 / Fold change vs veh, N4BP2L2 / RFU, ARFIP1 / Fold change vs veh, ARFIP1 / RFU, FAM179B / Fold change vs veh, FAM179B / RFU, BCL10 / Fold change vs veh, BCL10 / RFU, UHRF1BP1L / Fold change vs veh, UHRF1BP1L / RFU, BET1 / Fold change vs veh, BET1 / RFU, CNOT2 / Fold change vs veh, CNOT2 / RFU, ZNF268 / Fold change vs veh, ZNF268 / Fold change vs veh, ZNF507 / RFU, DGCR2 / Fold change vs veh, DGCR2 / RFU, WDSUB1 / Fold change vs veh, WDSUB1 / Fold change vs veh, HSP90B1 /// MIR3652 / RFU, ADSS / Fold change vs veh, ADSS / RFU, GK / Fold change vs veh, GK / RFU, ZNF148 / Fold change vs veh, ZNF148 / RFU, TAF9 / Fold change vs veh, TAF9 / RFU, SLC1A5 / Fold change vs veh, SLC1A5 / RFU, SLMO2 / Fold change vs veh, SLMO2 / RFU, ABCC4 / Fold change vs veh, ABCC4 / RFU, LOC101060439 /// RAP1B / Fold change vs veh, LOC101060439 /// RAP1B / RFU, RFX7 / Fold change vs veh, RFX7 / RFU, GTPBP10 / Fold change vs veh, GTPBP10 / RFU, CNEP1R1 / Fold change vs veh, CNEP1R1 / RFU, BIVM-ERCC5 /// ERCC5 / Fold change vs veh, BIVM-ERCC5 /// ERCC5 / RFU, ILF3 / Fold change vs veh, ILF3 / RFU 11762660_at / Fold change /veh 11762660_at / RFU VCAN (11757783_s_at) / Fold change /veh VCAN (11757783_s_at) / RFU DDX43 (11728927_at) / Fold change /veh DDX43 (11728927_at) / RFU KRT8 (11758188_x_at) / Fold change /veh KRT8 (11758188_x_at) / RFU NKD1 (11759106_at) / Fold change /veh NKD1 (11759106_at) / RFU SRD5A1 (11742802_a_at) / Fold change /veh SRD5A1 (11742802_a_at) / RFU TPSAB1 /// TPSB2 (11721975_s_at) / Fold change /veh TPSAB1 /// TPSB2 (11721975_s_at) / RFU GSTM3 (11746129_a_at) / Fold change /veh GSTM3 (11746129_a_at) / RFU IL23R (11737362_x_at) / Fold change /veh IL23R (11737362_x_at) / RFU TMEM51 (11727254_a_at) / Fold change /veh TMEM51 (11727254_a_at) / RFU PIWIL2 (11732686_x_at) / Fold change /veh PIWIL2 (11732686_x_at) / RFU ORM1 (11744905_x_at) / Fold change /veh ORM1 (11744905_x_at) / RFU CCDC152 (11743942_at) / Fold change /veh CCDC152 (11743942_at) / RFU ECM1 (11717891_a_at) / Fold change /veh ECM1 (11717891_a_at) / RFU IL23R (11748794_a_at) / Fold change /veh IL23R (11748794_a_at) / RFU TNFAIP8L3 (11732012_x_at) / Fold change /veh TNFAIP8L3 (11732012_x_at) / RFU MBOAT4 (11741988_at) / Fold change /veh MBOAT4 (11741988_at) / RFU 11764193_at / Fold change /veh 11764193_at / RFU TMEM53 (11763286_at) / Fold change /veh TMEM53 (11763286_at) / RFU MAGEB2 (11727129_at) / Fold change /veh MAGEB2 (11727129_at) / RFU TMEM200A (11744735_a_at) / Fold change /veh TMEM200A (11744735_a_at) / RFU CCDC152 (11751479_a_at) / Fold change /veh CCDC152 (11751479_a_at) / RFU FAM211A (11726209_a_at) / Fold change /veh FAM211A (11726209_a_at) / RFU RGS16 (11746705_a_at) / Fold change /veh RGS16 (11746705_a_at) / RFU VCAN (11755009_s_at) / Fold change /veh VCAN (11755009_s_at) / RFU RHOB (11743442_s_at) / Fold change /veh RHOB (11743442_s_at) / RFU RGS16 (11720943_a_at) / Fold change /veh RGS16 (11720943_a_at) / RFU RGS16 (11720944_at) / Fold change /veh RGS16 (11720944_at) / RFU, VPS4B / Fold change vs veh, VPS4B / RFU, CREB1 / Fold change vs veh, CREB1 / RFU, DNAJC13 / Fold change vs veh, DNAJC13 / RFU, GNAQ / Fold change vs veh, GNAQ / RFU, CDK5R1 / Fold change vs veh, CDK5R1 / RFU, ZRANB3 / Fold change vs veh, ZRANB3 / RFU, CUL4A / Fold change vs veh, CUL4A / RFU, CCNY / Fold change vs veh, CCNY / RFU, UFL1 / Fold change vs veh, UFL1 / RFU, COG3 / Fold change vs veh, COG3 / RFU, DIAPH2 / Fold change vs veh, DIAPH2 / RFU, SKA2 / Fold change vs veh, SKA2 / RFU, AFF3 / Fold change vs veh, AFF3 / RFU, LMF1 / Fold change vs veh, LMF1 / RFU, IPO11 / Fold change vs veh, IPO11 / RFU, DFFB / Fold change vs veh, DFFB / RFU, FOXP1 / Fold change vs veh, FOXP1 / RFU, CARD8 / Fold change vs veh, CARD8 / RFU, STRN3 / Fold change vs veh, STRN3 / RFU, ADK / Fold change vs veh, ADK / RFU, RASSF2 / Fold change vs veh, RASSF2 / RFU, WIPF1 / Fold change vs veh, WIPF1 / RFU, LARP1B / Fold change vs veh, LARP1B / RFU, RASA1 / Fold change vs veh, RASA1 / RFU, RB1 / Fold change vs veh, RB1 / RFU, PPFIA1 / Fold change vs veh, PPFIA1 / RFU, MAT2A / Fold change vs veh, MAT2A / RFU, CCT5 / Fold change vs veh, CCT5 / RFU, WDR92 / Fold change vs veh, WDR92 / RFU, CUX1 / Fold change vs veh, CUX1 / RFU, TTC7A / Fold change vs veh, TTC7A / RFU, TMEM135 / Fold change vs veh, TMEM135 / RFU, DEPTOR / Fold change vs veh, DEPTOR / RFU, CPM / Fold change vs veh, CPM / RFU, DNAJB6 / Fold change vs veh, DNAJB6 / RFU, CACNA2D3 / Fold change vs veh, CACNA2D3 / RFU, DTX4 / Fold change vs veh, DTX4 / RFU, TFCP2 / Fold change vs veh, TFCP2 / RFU, GMCL1 /// GMCL1P1 / Fold change vs veh, GMCL1 /// GMCL1P1 / RFU, AEBP2 / Fold change vs veh, AEBP2 / RFU, SNHG1 /// SNORD22 /// SNORD25 /// SNORD26 /// SNORD27 /// SNORD28 /// SNORD29 /// SNORD31 / Fold change vs veh, SNHG1 /// SNORD22 /// SNORD25 /// SNORD26 /// SNORD27 /// SNORD28 /// SNORD29 /// SNORD31 / Fold change (Aza/veh), C12orf56 (ProbeSet 11735607_a_at) / Fold change (ACY-1035/veh), C12orf56 (ProbeSet 11735607_a_at) / Fold change (Aza/veh), FGFR1OP (ProbeSet 11751329_s_at) / Fold change (ACY-1035/veh), FGFR1OP (ProbeSet 11751329_s_at) / Fold change (Aza/veh), VPS36 (ProbeSet 11739960_a_at) / Fold change (ACY-1035/veh), VPS36 (ProbeSet 11739960_a_at) / RFU SYPL1 (11715823_x_at) / Fold change /veh SYPL1 (11715823_x_at) / RFU IGFBP7 (11715501_s_at) / Fold change /veh IGFBP7 (11715501_s_at) / RFU REEP3 (11722064_at) / Fold change /veh REEP3 (11722064_at) / RFU IGLL1 (11728026_x_at) / Fold change /veh IGLL1 (11728026_x_at): dose or concentration left out as unconfirmed. Conditions: MV-4-11 cells, 48 hours.

For `Nc1ccc(-c2cccs2)cc1NC(=O)c1ccc2c(c1)cc(C1CC1)n2CCN1CCOCC1` [ACY-1035], the “Fold change /veh 11762660_at” value was determined as 0.98.
